# In paper PMC3196276 (2011):
# How the values were obtained:
# [1] = test system: Smu wild type (wt) THF riboswitch aptamer, crystallization sequence (RNA, riboswitch) GGAGAGUAGAUGAUUCGCGUUAAGUGUGUGUGAAUGGGAUGUCGUCACACAACGAAGCGAGAGCGCGGUGAAUCAUUGCAUCCGCUCCA; settings: apparent; ligand not given, THF from context
# [2] = test system: U7C (PK site mutant) (RNA, riboswitch) GGAGAGCAGAUGAUUCGCGUUAAGUGUGUGUGAAUGGGAUGUCGUCACACAACGAAGCGAGAGCGCGGUGAAUCAUUGCAUCCGCUCCA; test: ITC; settings: 6 mM MgCl2, 100 mM NaCl, 10 mM KCl; 10 mM HEPES pH 8.0, 1 mM DTT, 25 °C
# [3] = test system: U25C (3WJ site mutant) (RNA, riboswitch) GGAGAGUAGAUGAUUCGCGUUAAGCGUGUGUGAAUGGGAUGUCGUCACACAACGAAGCGAGAGCGCGGUGAAUCAUUGCAUCCGCUCCA; test: ITC; settings: 6 mM MgCl2, 100 mM NaCl, 10 mM KCl; 10 mM HEPES pH 8.0, 1 mM DTT, 25 °C
SMILES,"KD,app [1]",KD [2],KD [3]
Nc1nc2c(c(=O)[nH]1)N[C@@H](CNc1ccc(C(=O)N[C@@H](CCC(=O)O)C(=O)O)cc1)CN2,18 ± 1 µM,,
Nc1nc2c(c(=O)[nH]1)N(C=O)[C@@H](CNc1ccc(C(=O)N[C@@H](CCC(=O)O)C(=O)O)cc1)CN2,,23 ± 2 µM,18 ± 1 µM
